Measurements reported in PubChem BioAssay (NCI).
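Cultured in 96-well plates, cells were exposed to test compound for 48 hours across five concentrations. The concentration for 50% growth inhibition is given as GI50. At the TGI there is no net growth.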

What was measured:
Assay in all cases: growth of human tumour cells (NCI), 48 h
LOX IMVI melanoma = system: LOX IMVI melanoma
ACHN renal = system: ACHN renal
HT29 colon = system: HT29 colon
MALME-3M melanoma = system: MALME-3M melanoma
MOLT-4 leukemia = system: MOLT-4 leukemia
HCT-116 colon = system: HCT-116 colon
SW-620 colon = system: SW-620 colon
CAKI-1 renal = system: CAKI-1 renal
OVCAR-5 ovarian = system: OVCAR-5 ovarian
SN12C renal = system: SN12C renal
NCI-H23 lung = system: NCI-H23 lung
COLO 205 colon = system: COLO 205 colon
SF-539 CNS = system: SF-539 CNS
UACC-257 melanoma = system: UACC-257 melanoma
RPMI-8226 leukemia = system: RPMI-8226 leukemia
IGROV1 ovarian = system: IGROV1 ovarian
MCF7 breast = system: MCF7 breast
EKVX NSCLC = system: EKVX NSCLC
HOP-62 NSCLC = system: HOP-62 NSCLC
A549 NSCLC = system: A549 NSCLC
TK-10 renal = system: TK-10 renal
SNB-75 CNS = system: SNB-75 CNS
DU-145 prostate = system: DU-145 prostate
T-47D breast = system: T-47D breast
K-562 leukemia = system: K-562 leukemia
CCRF-CEM leukemia = system: CCRF-CEM leukemia
NCI-H226 lung = system: NCI-H226 lung
786-0 renal = system: 786-0 renal
NCI-H522 lung = system: NCI-H522 lung
MDA-MB-435 = system: MDA-MB-435
UO-31 renal = system: UO-31 renal
SK-OV-3 ovarian = system: SK-OV-3 ovarian
M14 melanoma = system: M14 melanoma
A498 renal = system: A498 renal
PC-3 prostate = system: PC-3 prostate
SK-MEL-5 melanoma = system: SK-MEL-5 melanoma
SK-MEL-28 melanoma = system: SK-MEL-28 melanoma
SNB-19 CNS = system: SNB-19 CNS
SF-295 CNS = system: SF-295 CNS
OVCAR-8 ovarian = system: OVCAR-8 ovarian
NCI/ADR-RES ovarian = system: NCI/ADR-RES ovarian
KM12 colon = system: KM12 colon
HL-60(TB) leukemia = system: HL-60(TB) leukemia
SF-268 CNS = system: SF-268 CNS
SR leukemia = system: SR leukemia
UACC-62 melanoma = system: UACC-62 melanoma
NCI-H460 lung = system: NCI-H460 lung
HCC-2998 colon = system: HCC-2998 colon
RXF 393 renal = system: RXF 393 renal
OVCAR-4 ovarian = system: OVCAR-4 ovarian
HOP-92 NSCLC = system: HOP-92 NSCLC
HCT-15 colon = system: HCT-15 colon
SK-MEL-2 melanoma = system: SK-MEL-2 melanoma
HS 578T breast = system: HS 578T breast
MDA-MB-231 breast = system: MDA-MB-231 breast
U251 CNS = system: U251 CNS

In the case of `C=CCn1c(SCC(=O)Nc2ccc(C(=O)/C=C/c3cc(OC)c(OC)c(OC)c3)cc2)nnc1-c1c[nH]c2ccccc12`, the GI50 (LOX IMVI melanoma) is reported as 0.904 µM, the TGI (LOX IMVI melanoma) is reported as 2.34 µM and the GI50 (ACHN renal) is reported as 1.97 µM. The TGI (ACHN renal) was 4.33 µM, the GI50 (HT29 colon) was 1.7 µM and the TGI (HT29 colon) was 3.3 µM. The GI50 (MALME-3M melanoma) was 3.2 µM, the TGI (MALME-3M melanoma) was 24.9 µM and the GI50 (MOLT-4 leukemia) was 2.7 µM. It also gave a TGI (MOLT-4 leukemia) greater than 100 µM, a GI50 (HCT-116 colon) of 0.376 µM and a TGI (HCT-116 colon) of 1.53 µM. It also gave a GI50 (SW-620 colon) of 2.08 µM, a TGI (SW-620 colon) of 5.85 µM and a GI50 (CAKI-1 renal) of 3.35 µM. For the same compound, the TGI (CAKI-1 renal) was greater than 100 µM, the GI50 (OVCAR-5 ovarian) was 2.06 µM and the TGI (OVCAR-5 ovarian) was 4.34 µM. For the same compound, the GI50 (SN12C renal) was 3.71 µM, the TGI (SN12C renal) was greater than 100 µM and the GI50 (NCI-H23 lung) was 1.85 µM. For the same compound, the TGI (NCI-H23 lung) was 4.16 µM, the GI50 (COLO 205 colon) was 1.87 µM and the TGI (COLO 205 colon) was 4.07 µM. For the same compound, the GI50 (SF-539 CNS) was 1.81 µM, the TGI (SF-539 CNS) was 3.64 µM and the GI50 (UACC-257 melanoma) was 3.5 µM. For the same compound, the TGI (UACC-257 melanoma) was 19.8 µM, the GI50 (RPMI-8226 leukemia) was 0.288 µM and the TGI (RPMI-8226 leukemia) was 1.26 µM. The GI50 (IGROV1 ovarian) was 1.6 µM, the TGI (IGROV1 ovarian) was 4.06 µM and the GI50 (MCF7 breast) was 0.361 µM. For the same compound, the TGI (MCF7 breast) was 1.86 µM, the GI50 (EKVX NSCLC) was 3.69 µM and the TGI (EKVX NSCLC) was greater than 100 µM. The GI50 (HOP-62 NSCLC) was 2.06 µM, the TGI (HOP-62 NSCLC) was 5.22 µM and the GI50 (A549 NSCLC) was 3.04 µM. For the same compound, the TGI (A549 NSCLC) was 12.3 µM, the GI50 (TK-10 renal) was 5.8 µM and the TGI (TK-10 renal) was 34.3 µM. The GI50 (SNB-75 CNS) was 3.5 µM, the TGI (SNB-75 CNS) was 17.3 µM and the GI50 (DU-145 prostate) was 3.19 µM. For the same compound, the TGI (DU-145 prostate) was 10.8 µM, the GI50 (T-47D breast) was 2.42 µM and the TGI (T-47D breast) was greater than 100 µM. It also gave a GI50 (K-562 leukemia) of 0.991 µM, a TGI (K-562 leukemia) greater than 100 µM and a GI50 (CCRF-CEM leukemia) of 2.24 µM. It also gave a TGI (CCRF-CEM leukemia) greater than 100 µM, a GI50 (NCI-H226 lung) of 2.56 µM and a TGI (NCI-H226 lung) of 56.8 µM. It also gave a GI50 (786-0 renal) of 1.84 µM, a TGI (786-0 renal) of 3.43 µM and a GI50 (NCI-H522 lung) of 2.15 µM. The TGI (NCI-H522 lung) was 4.99 µM, the GI50 (MDA-MB-435) was 1.82 µM and the TGI (MDA-MB-435) was 4.76 µM. It also gave a GI50 (UO-31 renal) of 1.63 µM, a TGI (UO-31 renal) of 4.77 µM and a GI50 (SK-OV-3 ovarian) of 4.46 µM. It also gave a TGI (SK-OV-3 ovarian) of 19.3 µM, a GI50 (M14 melanoma) of 2.66 µM and a TGI (M14 melanoma) of 8.39 µM. It also gave a GI50 (A498 renal) of 1.5 µM, a TGI (A498 renal) of 2.92 µM and a GI50 (PC-3 prostate) of 3.09 µM. For the same compound, the TGI (PC-3 prostate) was greater than 100 µM, the GI50 (SK-MEL-5 melanoma) was 3.52 µM and the TGI (SK-MEL-5 melanoma) was 13.5 µM. The GI50 (SK-MEL-28 melanoma) was 2.32 µM, the TGI (SK-MEL-28 melanoma) was 5.61 µM and the GI50 (SNB-19 CNS) was 3 µM. It also gave a TGI (SNB-19 CNS) of 13.3 µM, a GI50 (SF-295 CNS) of 3.14 µM and a TGI (SF-295 CNS) of 11.6 µM. It also gave a GI50 (OVCAR-8 ovarian) of 3.44 µM, a TGI (OVCAR-8 ovarian) greater than 100 µM and a GI50 (NCI/ADR-RES ovarian) greater than 100 µM. It also gave a TGI (NCI/ADR-RES ovarian) greater than 100 µM, a GI50 (KM12 colon) of 1.48 µM and a TGI (KM12 colon) of 2.98 µM. It also gave a GI50 (HL-60(TB) leukemia) of 2.18 µM, a TGI (HL-60(TB) leukemia) of 8.04 µM and a GI50 (SF-268 CNS) of 3.43 µM. The TGI (SF-268 CNS) was 18.6 µM, the GI50 (SR leukemia) was 0.522 µM and the TGI (SR leukemia) was greater than 100 µM. The GI50 (UACC-62 melanoma) was 2.55 µM, the TGI (UACC-62 melanoma) was 10.4 µM and the GI50 (NCI-H460 lung) was 3.1 µM. It also gave a TGI (NCI-H460 lung) of 10.1 µM, a GI50 (HCC-2998 colon) of 1.65 µM and a TGI (HCC-2998 colon) of 3.09 µM. The GI50 (RXF 393 renal) was 1.53 µM, the TGI (RXF 393 renal) was 3.34 µM and the GI50 (OVCAR-4 ovarian) was 2.79 µM. The TGI (OVCAR-4 ovarian) was 8.91 µM, the GI50 (HOP-92 NSCLC) was 4.24 µM and the TGI (HOP-92 NSCLC) was greater than 100 µM. It also gave a GI50 (HCT-15 colon) of 2.08 µM, a TGI (HCT-15 colon) of 11.1 µM and a GI50 (SK-MEL-2 melanoma) of 2.25 µM. For the same compound, the TGI (SK-MEL-2 melanoma) was 6.38 µM, the GI50 (HS 578T breast) was 4.35 µM and the TGI (HS 578T breast) was greater than 100 µM. For the same compound, the GI50 (MDA-MB-231 breast) was 5.58 µM, the TGI (MDA-MB-231 breast) was greater than 100 µM and the GI50 (U251 CNS) was 1.61 µM. For the same compound, the TGI (U251 CNS) was 3.64 µM.
